“And” between values parts separate entries of the source, which are not always exact repeats. Identical values can stand only once. Like-named read-outs stand apart in the source and are kept apart here.
What was measured:
turkey β1-AR E233^5.64A = turkey β1-AR E233^5.64A (Meleagris gallopavo, UniProt P07700, E233A); assay type: cell-based
Procedure: (§1) CHO cells (transfected with a control empty vector or wild-type or mutant turkey β1-AR) were plated onto six-well plates, and were pre-incubated with culture medium buffered with 0.5 mM IBMX for 30 min at 37 °C[20]. […] After culture medium removal, cells were treated with 0.1 M HCl for 10 minutes at room temperature. After centrifugation, the supernatant was used for cAMP quantification using the Direct Cyclic AMP Enzyme Immunoassay kit (Enzo Life Sciences). […] The cAMP assays were repeated three times, and the data are represented as mean ± SD of the three independent experiments. The analysis was done using the log(agonist) vs. response function of Prism 8 (GraphPad)[20].

turkey β1-AR F147^ICL2A = turkey β1-AR F147^ICL2A (Meleagris gallopavo, UniProt P07700, F147A); assay type: cell-based
Procedure: as §1

turkey β1-AR P146^ICL2A = turkey β1-AR P146^ICL2A (Meleagris gallopavo, UniProt P07700, P146A); assay type: cell-based
Procedure: as §1

turkey β1-AR Q150^ICL2A = turkey β1-AR Q150^ICL2A (Meleagris gallopavo, UniProt P07700, Q150A); assay type: cell-based; settings: for cAMP level: Fig 5c,e source data, Q150A
Procedure: as §1

turkey β1-AR Q237^5.68A = turkey β1-AR Q237^5.68A (Meleagris gallopavo, UniProt P07700, Q237A); assay type: cell-based; settings: for cAMP level: Fig 5c,e source data, Q237A
Procedure: as §1

turkey β1-AR S151^ICL2A = turkey β1-AR S151^ICL2A (Meleagris gallopavo, UniProt P07700, S151A); assay type: cell-based; settings: for cAMP, time course: S151ICL2A
Procedure: as §1

turkey β1-AR T291^6.36A = turkey β1-AR T291^6.36A (Meleagris gallopavo, UniProt P07700, T291A); assay type: cell-based; settings: for cAMP level: Fig 5c,e source data, T291A
Procedure: as §1

turkey β1-AR V230^5.61A = turkey β1-AR V230^5.61A (Meleagris gallopavo, UniProt P07700, V230A); assay type: cell-based; settings: for cAMP level: Fig 5c,e source data, V230A; for cAMP, time course: V2305.61A
Procedure: as §1

wild-type turkey β1-AR [1] = molecular target: T1, wild-type turkey β1-AR (Meleagris gallopavo, UniProt P07700); assay type: cell-based
Procedure: as §1

turkey β1-AR V326^7.36A = turkey β1-AR V326^7.36A (Meleagris gallopavo, UniProt P07700, V326A); experiment: cell-based
Procedure: as §1

wild-type turkey β1-AR [2] = molecular target: T1, wild-type turkey β1-AR; experiment: cAMP assay, time course, transfected CHO cells; assay type: cell-based; settings: for cAMP, time course: WT
Procedure: as §1

[3] = system: ligand-bound nucleotide-free β1-AR–Gs complex; assay type: biochemical, turkey; settings: ligand at ~EC90; 10 μM BODIPY FL GTPγS; 25 °C; mean ± SD
From the text: To investigate whether ligands with different efficacies have different effects on the stability of the intermediate state, we prepared the complex of ligand-bound β1-AR-Gs (nucleotide-free), and quantified the stability of the intermediate state complex (Fig. 7a). Fluorescently labeled BODIPY-GTPγS binding to the ligand-bound β1-AR–Gs (nucleotide-free) complex eventually leads to the dissociation of the complex to produce the fluorescently labeled product Gαs(BODIPY-GTPγS), which is detected by an increase in fluorescence (the β1-AR–Gαs(BODIPY-GTPγS)–Gβγ intermediate is very transient)[31],[35] […] The data were then fitted by nonlinear association analyses and half-life values (t1/2 = ln 2/k) were calculated based on the rate constant (Fig. 7b–e).
The reaction was initiated by adding 10 μM BODIPY™ FL GTPγS (Invitrogen). Relative fluorescence units (RFU) change was measured every 12 s for a total of 60 min at 25 °C. The BODIPY-GTPγS binding data were fitted to one phase exponential association curves using GraphPad Prism 8.

[4] = system: β1-AR mutants of residues that interact with Gs; experiment: cAMP assay, dose-response, summary over mutants of Gs-interacting residues; assay type: cell-based, turkey; settings: range over mutants, Fig. 5c,d
wild-type turkey β1-AR [5] = molecular target: T1, wild-type turkey β1-AR; settings: cited from earlier work
[6] = CHO, 5 min, read-out: Efficacy (% of max cAMP level)

T1 sequence (P07700 whole entry): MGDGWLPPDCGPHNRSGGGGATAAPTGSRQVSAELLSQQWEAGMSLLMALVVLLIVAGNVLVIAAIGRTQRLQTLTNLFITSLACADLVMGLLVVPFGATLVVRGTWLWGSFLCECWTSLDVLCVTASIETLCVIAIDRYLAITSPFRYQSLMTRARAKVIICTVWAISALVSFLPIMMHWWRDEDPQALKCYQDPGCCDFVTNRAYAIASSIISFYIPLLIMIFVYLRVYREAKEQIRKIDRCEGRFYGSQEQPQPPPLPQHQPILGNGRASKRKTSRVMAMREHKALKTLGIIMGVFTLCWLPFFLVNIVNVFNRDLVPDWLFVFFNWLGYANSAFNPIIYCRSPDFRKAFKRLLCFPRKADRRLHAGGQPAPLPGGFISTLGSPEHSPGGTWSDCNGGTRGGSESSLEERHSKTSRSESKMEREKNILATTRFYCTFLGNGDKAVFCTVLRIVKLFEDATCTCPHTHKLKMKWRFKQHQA
Sequence of turkey β1-AR F147^ICL2A (P07700 whole entry F147A): as the sequence (P07700 whole entry) above, with F147A counted along it
Sequence of turkey β1-AR Q237^5.68A (P07700 whole entry Q237A): as the sequence (P07700 whole entry) above, with Q237A counted along it
Sequence of turkey β1-AR T291^6.36A (P07700 whole entry T291A): as the sequence (P07700 whole entry) above, with T291A counted along it
Sequence of turkey β1-AR Q150^ICL2A (P07700 whole entry Q150A): as the sequence (P07700 whole entry) above, with Q150A counted along it
Sequence of turkey β1-AR V230^5.61A (P07700 whole entry V230A): as the sequence (P07700 whole entry) above, with V230A counted along it
Sequence of turkey β1-AR S151^ICL2A (P07700 whole entry S151A): as the sequence (P07700 whole entry) above, with S151A counted along it
Sequence of turkey β1-AR E233^5.64A (P07700 whole entry E233A): as the sequence (P07700 whole entry) above, with E233A counted along it
Sequence of turkey β1-AR P146^ICL2A (P07700 whole entry P146A): as the sequence (P07700 whole entry) above, with P146A counted along it
Sequence of turkey β1-AR V326^7.36A (P07700 whole entry V326A): as the sequence (P07700 whole entry) above, with V326A counted along it

CC(CCc1ccc(O)cc1)NCCc1ccc(O)c(O)c1 (stereo not drawn) [Dobutamine, dobutamine]
EC50 (turkey β1-AR E233^5.64A): 7.08 µM | Emax (turkey β1-AR E233^5.64A; [6]): 41 ± 3.7% | EC50 (turkey β1-AR F147^ICL2A): 11.5 µM | Emax (turkey β1-AR F147^ICL2A; [6]): 17 ± 0.2% | cAMP level (turkey β1-AR F147^ICL2A; Fig 5c,e source data, F147A, log[ligand] (M) -9): 32 | EC50 (turkey β1-AR P146^ICL2A): 4.07 µM | Emax (turkey β1-AR P146^ICL2A; [6]): 38 ± 2.4% | EC50 (turkey β1-AR Q150^ICL2A): 3.39 µM | Emax (turkey β1-AR Q150^ICL2A; [6]): 44 ± 3.5% | cAMP level (turkey β1-AR Q150^ICL2A; log[ligand] (M) -3): 192 and 204 and 207 | cAMP level (turkey β1-AR Q150^ICL2A; log[ligand] (M) -4): 178 and 195 and 219 | cAMP level (turkey β1-AR Q150^ICL2A; log[ligand] (M) -5): 151 and 169 and 177 | cAMP level (turkey β1-AR Q150^ICL2A; log[ligand] (M) -6): 58 and 69 and 73 | cAMP level (turkey β1-AR Q150^ICL2A; log[ligand] (M) -7): 36 and 42 and 43 | cAMP level (turkey β1-AR Q150^ICL2A; log[ligand] (M) -8): 36 and 40 | cAMP level (turkey β1-AR Q150^ICL2A; log[ligand] (M) -9): 35 and 37 and 41 | EC50 (turkey β1-AR Q237^5.68A): 9.55 µM | Emax (turkey β1-AR Q237^5.68A; [6]): 21 ± 1.7% | cAMP level (turkey β1-AR Q237^5.68A; log[ligand] (M) -3): 103 and 114 and 116 | cAMP level (turkey β1-AR Q237^5.68A; log[ligand] (M) -4): 97 and 112 and 118 | cAMP level (turkey β1-AR Q237^5.68A; log[ligand] (M) -5): 66 and 82 and 77 | cAMP level (turkey β1-AR Q237^5.68A; log[ligand] (M) -6): 39 and 42 | cAMP level (turkey β1-AR Q237^5.68A; log[ligand] (M) -7): 36 and 40 and 39 | cAMP level (turkey β1-AR Q237^5.68A; log[ligand] (M) -8): 34 and 39 and 40 | cAMP level (turkey β1-AR Q237^5.68A; log[ligand] (M) -9): 32 and 37 and 40 | EC50 (turkey β1-AR S151^ICL2A): 10.5 µM | Emax (turkey β1-AR S151^ICL2A; [6]): 38 ± 1.6% | cAMP, time course (turkey β1-AR S151^ICL2A; 0 min): 33 and 34 and 31 | cAMP, time course (turkey β1-AR S151^ICL2A; 0.5 min): 39 and 36 and 32 | cAMP, time course (turkey β1-AR S151^ICL2A; 1 min): 38 and 36 | cAMP, time course (turkey β1-AR S151^ICL2A; 2 min): 41 and 45 and 47 | cAMP, time course (turkey β1-AR S151^ICL2A; 5 min): 104 and 103 | cAMP, time course (turkey β1-AR S151^ICL2A; 10 min): 98 and 96 and 94 | cAMP, time course (turkey β1-AR S151^ICL2A; 15 min): 58 and 63 and 55 | cAMP, time course (turkey β1-AR S151^ICL2A; 20 min): 48 and 49 and 46 | cAMP, time course (turkey β1-AR S151^ICL2A; 25 min): 44 and 46 and 42 | cAMP, time course (turkey β1-AR S151^ICL2A; 30 min): 42 and 49 and 46 | EC50 (turkey β1-AR T291^6.36A): 6.61 µM | Emax (turkey β1-AR T291^6.36A; [6]): 21 ± 1.7% | cAMP level (turkey β1-AR T291^6.36A; log[ligand] (M) -3): 106 and 116 and 114 | cAMP level (turkey β1-AR T291^6.36A; log[ligand] (M) -4): 100 and 115 and 113 | cAMP level (turkey β1-AR T291^6.36A; log[ligand] (M) -5): 82 and 86 and 83 | cAMP level (turkey β1-AR T291^6.36A; log[ligand] (M) -6): 40 and 42 and 41 | cAMP level (turkey β1-AR T291^6.36A; log[ligand] (M) -7): 38 and 39 | cAMP level (turkey β1-AR T291^6.36A; log[ligand] (M) -8): 34 and 39 | cAMP level (turkey β1-AR T291^6.36A; log[ligand] (M) -9): 34 and 36 and 38 | EC50 (turkey β1-AR V230^5.61A): 6.17 µM | Emax (turkey β1-AR V230^5.61A; [6]): 36 ± 1.1% | cAMP level (turkey β1-AR V230^5.61A; log[ligand] (M) -3): 167 and 175 and 168 | cAMP level (turkey β1-AR V230^5.61A; log[ligand] (M) -4): 164 and 173 and 169 | cAMP level (turkey β1-AR V230^5.61A; log[ligand] (M) -5): 121 and 131 and 129 | cAMP level (turkey β1-AR V230^5.61A; log[ligand] (M) -6): 39 and 44 and 43 | cAMP level (turkey β1-AR V230^5.61A; log[ligand] (M) -7): 36 and 40 and 38 | cAMP level (turkey β1-AR V230^5.61A; log[ligand] (M) -8): 35 and 37 | cAMP level (turkey β1-AR V230^5.61A; log[ligand] (M) -9): 32 and 37 and 36 | cAMP, time course (turkey β1-AR V230^5.61A; 0 min): 30 and 28 and 33 | cAMP, time course (turkey β1-AR V230^5.61A; 0.5 min): 32 and 35 and 38 | cAMP, time course (turkey β1-AR V230^5.61A; 1 min): 34 and 37 and 35 | cAMP, time course (turkey β1-AR V230^5.61A; 2 min): 45 and 41 and 43 | cAMP, time course (turkey β1-AR V230^5.61A; 5 min): 126 and 122 and 128 | cAMP, time course (turkey β1-AR V230^5.61A; 10 min): 106 and 105 and 108 | cAMP, time course (turkey β1-AR V230^5.61A; 15 min): 61 and 56 | cAMP, time course (turkey β1-AR V230^5.61A; 20 min): 52 and 50 and 51 | cAMP, time course (turkey β1-AR V230^5.61A; 25 min): 46 and 44 and 47 | cAMP, time course (turkey β1-AR V230^5.61A; 30 min): 53 and 47 and 55 | EC50 (wild-type turkey β1-AR [1]): 1.58 µM | Emax (wild-type turkey β1-AR [1]; [6]): 100% | EC50 (turkey β1-AR V326^7.36A): 7.59 µM | Emax (turkey β1-AR V326^7.36A; [6]): 38 ± 1.2% | cAMP, time course (wild-type turkey β1-AR [2]; 0 min): 34 and 32 and 33 | cAMP, time course (wild-type turkey β1-AR [2]; 0.5 min): 35 and 36 and 37 | cAMP, time course (wild-type turkey β1-AR [2]; 1 min): 57 and 46 and 50 | cAMP, time course (wild-type turkey β1-AR [2]; 2 min): 132 and 139 and 131 | cAMP, time course (wild-type turkey β1-AR [2]; 5 min): 335 and 327 and 343 | cAMP, time course (wild-type turkey β1-AR [2]; 10 min): 326 and 316 and 321 | cAMP, time course (wild-type turkey β1-AR [2]; 15 min): 273 and 271 and 269 | cAMP, time course (wild-type turkey β1-AR [2]; 20 min): 179 and 172 and 177 | cAMP, time course (wild-type turkey β1-AR [2]; 25 min): 125 | cAMP signal, time course (wild-type turkey β1-AR [2]; ligand 10^-3 M, time 0 min): 30 and 31 and 29 | cAMP signal, time course (wild-type turkey β1-AR [2]; ligand 10^-3 M, time 0.5 min): 33 and 38 and 31 | cAMP signal, time course (wild-type turkey β1-AR [2]; ligand 10^-3 M, time 1 min): 63 and 68 and 61 | cAMP signal, time course (wild-type turkey β1-AR [2]; ligand 10^-3 M, time 2 min): 163 and 166 and 154 | cAMP signal, time course (wild-type turkey β1-AR [2]; ligand 10^-4 M, time 0 min): 32 and 33 and 28 | cAMP signal, time course (wild-type turkey β1-AR [2]; ligand 10^-4 M, time 0.5 min): 39 and 41 and 34 | cAMP signal, time course (wild-type turkey β1-AR [2]; ligand 10^-4 M, time 1 min): 55 and 61 | cAMP signal, time course (wild-type turkey β1-AR [2]; ligand 10^-4 M, time 2 min): 143 and 151 and 141 | cAMP signal, time course (wild-type turkey β1-AR [2]; ligand 10^-5 M, time 0 min): 29 and 33 and 31 | cAMP signal, time course (wild-type turkey β1-AR [2]; ligand 10^-5 M, time 0.5 min): 34 and 38 and 33 | cAMP signal, time course (wild-type turkey β1-AR [2]; ligand 10^-5 M, time 1 min): 47 and 51 and 49 | cAMP signal, time course (wild-type turkey β1-AR [2]; ligand 10^-5 M, time 2 min): 133 and 145 and 130 | cAMP signal, time course (wild-type turkey β1-AR [2]; ligand 10^-6 M, time 0 min): 30 and 27 | cAMP signal, time course (wild-type turkey β1-AR [2]; ligand 10^-6 M, time 0.5 min): 39 and 37 and 38 | cAMP signal, time course (wild-type turkey β1-AR [2]; ligand 10^-6 M, time 1 min): 54 and 56 and 55 | cAMP signal, time course (wild-type turkey β1-AR [2]; ligand 10^-6 M, time 2 min): 124 and 122 and 120 | cAMP signal, time course (wild-type turkey β1-AR [2]; ligand 10^-7 M, time 0 min): 28 and 33 and 26 | cAMP signal, time course (wild-type turkey β1-AR [2]; ligand 10^-7 M, time 0.5 min): 34 and 36 and 32 | cAMP signal, time course (wild-type turkey β1-AR [2]; ligand 10^-7 M, time 1 min): 37 and 41 and 36 | cAMP signal, time course (wild-type turkey β1-AR [2]; ligand 10^-7 M, time 2 min): 50 and 56 | cAMP signal, time course (wild-type turkey β1-AR [2]; ligand 10^-8 M, time 0 min): 27 and 28 and 26 | cAMP signal, time course (wild-type turkey β1-AR [2]; ligand 10^-8 M, time 0.5 min): 31 and 33 and 29 | cAMP signal, time course (wild-type turkey β1-AR [2]; ligand 10^-8 M, time 1 min): 34 and 37 | cAMP signal, time course (wild-type turkey β1-AR [2]; ligand 10^-8 M, time 2 min): 43 and 44 | cAMP signal, time course (wild-type turkey β1-AR [2]; ligand 10^-9 M, time 0 min): 27 and 31 and 26 | cAMP signal, time course (wild-type turkey β1-AR [2]; ligand 10^-9 M, time 0.5 min): 31 and 36 and 32 | cAMP signal, time course (wild-type turkey β1-AR [2]; ligand 10^-9 M, time 1 min): 32 and 34 and 27 | cAMP signal, time course (wild-type turkey β1-AR [2]; ligand 10^-9 M, time 2 min): 37 and 40 and 35 | time-dependent cAMP response (phases) (wild-type turkey β1-AR [2]; near-saturating concentration (EC90), Fig. 6): a slower signal activation phase and an even slower signal termination phase | Complex half-life [3]: 6.9 ± 0.6 min | change of EC50 by β1-AR mutations [4]: 2 to 7 fold | reduction of the cAMP response by β1-AR mutations [4]: 17–44% | ligand efficacy class (wild-type turkey β1-AR [5]): partial agonist
